In patent US20230322761A1, “DEGRADATION OF BRUTON'S TYROSINE KINASE (BTK) BY CONJUGATION OF BTK INHIBITORS WITH E3 LIGASE LIGAND AND METHODS OF USE” (BEIGENE, LTD., priority 2020, published 2023):

What follows are compounds tested against T1, BTK (Homo sapiens, UniProt Q06187) (assay: BTK degradation in TMD-8 cells, HTRF assay after 6 h treatment). Details: IC50 (DC50) of BTK degradation.
T1 construct: endogenous in cells; host or cells: TMD-8 cells
Format: cell-based
Method in brief: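 TMD-8 cells treated for 6 h with 8 compound doses in 6-fold dilution steps from a 1 mM 500× DMSO stock (0.2% DMSO), then lysed 30 min at room temperature. BTK in lysate detected by HTRF (665/620 nm) after overnight antibody incubation; DC50 from four-parameter curve fit.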

T1 sequence (Q06187 whole entry): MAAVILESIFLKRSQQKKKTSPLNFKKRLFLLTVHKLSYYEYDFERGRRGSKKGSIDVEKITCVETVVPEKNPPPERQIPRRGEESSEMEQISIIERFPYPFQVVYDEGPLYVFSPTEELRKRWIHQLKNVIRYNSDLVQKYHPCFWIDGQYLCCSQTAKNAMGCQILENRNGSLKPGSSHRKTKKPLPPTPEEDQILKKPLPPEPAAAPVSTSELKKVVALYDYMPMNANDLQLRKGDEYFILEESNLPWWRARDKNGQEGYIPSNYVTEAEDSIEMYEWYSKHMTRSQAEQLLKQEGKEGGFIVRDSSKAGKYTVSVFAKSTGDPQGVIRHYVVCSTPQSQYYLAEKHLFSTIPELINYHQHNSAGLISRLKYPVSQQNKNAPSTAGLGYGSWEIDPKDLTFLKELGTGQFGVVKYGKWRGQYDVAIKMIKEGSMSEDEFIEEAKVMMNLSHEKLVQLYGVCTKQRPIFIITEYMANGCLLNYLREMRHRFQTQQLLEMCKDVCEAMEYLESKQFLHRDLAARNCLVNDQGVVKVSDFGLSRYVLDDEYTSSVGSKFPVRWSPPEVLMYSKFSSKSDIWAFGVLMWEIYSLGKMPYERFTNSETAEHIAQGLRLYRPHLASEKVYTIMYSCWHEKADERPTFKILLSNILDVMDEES

| DC50 | Structure (SMILES) |
| --- | --- |
| 3.5 nM | Cc1cc(-c2n[nH]c3ncc(-c4ccc(C5CCN(CCc6ccc(C7CCC(=O)NC7=O)cc6)CC5)nc4)cc23)ccc1[C@@H](C)NC(=O)c1noc(C(C)(C)C)n1 (stereo partly drawn) [Example 117, 5-(tert-butyl)-N-((1R)-1-(4-(5-(6-(1-(4-(2,6-dioxopiperidin-3-yl)phenethyl)piperidin-4-yl)pyridin-3-yl)-1H-pyrazolo[3,4-b]pyridin-3-yl)-2-methylphenyl)ethyl)-1,2,4-oxadiazole-3-carboxamide] |
| 1.74 nM | Cc1cc(-c2n[nH]c3ncc(-c4ccc(N5CCN(CCc6ccc(C7CCC(=O)NC7=O)c(F)c6)CC5)cn4)cc23)ccc1[C@@H](C)NC(=O)c1noc(C(C)(C)C)n1 (stereo partly drawn) [Example 146, 5-(tert-butyl)-N-((1R)-1-(4-(5-(5-(4-(4-(2,6-dioxopiperidin-3-yl)-3-fluorophenethyl)piperazin-1-yl)pyridin-2-yl)-1H-pyrazolo[3,4-b]pyridin-3-yl)-2-methylphenyl)ethyl)-1,2,4-oxadiazole-3-carboxamide] |
| 23.6 nM | Cc1cc(-c2n[nH]c3ncc(-c4ccc(N5CC6CN(CCc7ccc(C8CCC(=O)NC8=O)c(C)n7)CC6C5)cn4)cc23)ccc1[C@@H](C)NC(=O)c1noc(C(C)(C)C)n1 (stereo partly drawn) [Example 189, 5-(tert-butyl)-N-((1R)-1-(4-(5-(5-(5-(2-(5-(2,6-dioxopiperidin-3-yl)-6-methylpyridin-2-yl)ethyl)hexahydropyrrolo[3,4-c]pyrrol-2(1H)-yl)pyridin-2-yl)-1H-pyrazolo[3,4-b]pyridin-3-yl)-2-methylphenyl)ethyl)-1,2,4-oxadiazole-3-carboxamide] |
| 1.31 nM | Cc1cc(-c2n[nH]c3ncc(-c4ccc(N5CCN(CCc6ccc(C7CCC(=O)NC7=O)cc6)CC5)cn4)cc23)ccc1CNC(=O)c1noc(C(C)(C)C)n1 (stereo not drawn) [Example 103, 5-(tert-butyl)-N-(4-(5-(5-(4-(4-(2,6-dioxopiperidin-3-yl)phenethyl)piperazin-1-yl)pyridin-2-yl)-1H-pyrazolo[3,4-b]pyridin-3-yl)-2-methylbenzyl)-1,2,4-oxadiazole-3-carboxamide] |
| 1.96 nM | Cc1cc(-c2n[nH]c3ncc(-c4ccc(N5CC6CC5CN6CCc5ccc(C6CCC(=O)NC6=O)cc5)cn4)cc23)ccc1[C@@H](C)NC(=O)c1noc(C(C)(C)C)n1 (stereo partly drawn) [Example 133, 5-(tert-butyl)-N-((1R)-1-(4-(5-(5-(5-(4-(2,6-dioxopiperidin-3-yl)phenethyl)-2,5-diazabicyclo[2.2.1]heptan-2-yl)pyridin-2-yl)-1H-pyrazolo[3,4-b]pyridin-3-yl)-2-methylphenyl)ethyl)-1,2,4-oxadiazole-3-carboxamide] |
| 14.2 nM | Cc1cc(-c2n[nH]c3ncc(-c4ccc(N5CCN(CCc6ccc(OC7CCC(=O)NC7=O)cc6)CC5)cc4)cc23)ccc1[C@@H](C)NC(=O)c1noc(C(C)(C)C)n1 (stereo partly drawn) [Example 123, 5-(tert-butyl)-N-((1R)-1-(4-(5-(4-(4-(4-((2,6-dioxopiperidin-3-yl)oxy)phenethyl)piperazin-1-yl)phenyl)-1H-pyrazolo[3,4-b]pyridin-3-yl)-2-methylphenyl)ethyl)-1,2,4-oxadiazole-3-carboxamide] |
| 7.21 nM | Cc1cc(CCN2CCN(c3ccc(-c4cnc5[nH]nc(-c6ccc([C@@H](C)NC(=O)c7nc(C(C)(C)C)no7)c(C)c6)c5c4)cc3)CC2)ccc1C1CCC(=O)NC1=O (stereo partly drawn) [Example 87, 3-(tert-butyl)-N-((1R)-1-(4-(5-(4-(4-(4-(2,6-dioxopiperidin-3-yl)-3-methylphenethyl)piperazin-1-yl)phenyl)-1H-pyrazolo[3,4-b]pyridin-3-yl)-2-methylphenyl)ethyl)-1,2,4-oxadiazole-5-carboxamide] |
| 1.03 nM | Cc1cc(-c2n[nH]c3ncc(-c4ccc(N5CCN(CCc6ccc([C@@H]7CCC(=O)NC7=O)cn6)CC5)cc4)cc23)ccc1[C@@H](C)NC(=O)c1noc(C(C)(C)C)n1 [Example 139, 5-(tert-butyl)-N—((R)-1-(4-(5-(4-(4-(2-(5-((S)-2,6-dioxopiperidin-3-yl)pyridin-2-yl)ethyl)piperazin-1-yl)phenyl)-1H-pyrazolo[3,4-b]pyridin-3-yl)-2-methylphenyl)ethyl)-1,2,4-oxadiazole-3-carboxamide] |
| 5.84 nM | Cc1cc(-c2n[nH]c3ncc(-c4ccc(CCN5CCN(c6ccc(N7CCC(=O)NC7=O)cc6)CC5)cc4)cc23)ccc1[C@@H](C)NC(=O)c1noc(C(C)(C)C)n1 [Example 128, (R)-5-(tert-butyl)-N-(1-(4-(5-(4-(2-(4-(4-(2,4-dioxotetrahydropyrimidin-1(2H)-yl)phenyl)piperazin-1-yl)ethyl)phenyl)-1H-pyrazolo[3,4-b]pyridin-3-yl)-2-methylphenyl)ethyl)-1,2,4-oxadiazole-3-carboxamide] |

Further lines, the compound ahead of its results:

| Structure (SMILES) | DC50 |
| --- | --- |
| Cc1cc(CCN2CCN(c3ccc(-c4cnc5[nH]nc(-c6ccc([C@@H](C)NC(=O)c7nc(C(C)(C)C)no7)c(C)c6)c5c4)cc3)CC2)ncc1C1CCC(=O)NC1=O (stereo partly drawn) [Example 154, 3-(tert-butyl)-N-((1R)-1-(4-(5-(4-(4-(2-(5-(2,6-dioxopiperidin-3-yl)-4-methylpyridin-2-yl)ethyl)piperazin-1-yl)phenyl)-1H-pyrazolo[3,4-b]pyridin-3-yl)-2-methylphenyl)ethyl)-1,2,4-oxadiazole-5-carboxamide] | 3.27 nM |
| Cc1cc(N2CCC(CN3CCN(c4ccc(-c5cnc6[nH]nc(-c7ccc([C@@H](C)NC(=O)c8noc(C(C)(C)C)n8)c(CO)c7)c6c5)cn4)CC3)CC2)ccc1N1CCC(=O)NC1=O [Example 179, (R)-5-(tert-butyl)-N-(1-(4-(5-(6-(4-((1-(4-(2,4-dioxotetrahydropyrimidin-1(2H)-yl)-3-methylphenyl)piperidin-4-yl)methyl)piperazin-1-yl)pyridin-3-yl)-1H-pyrazolo[3,4-b]pyridin-3-yl)-2-(hydroxymethyl)phenyl)ethyl)-1,2,4-oxadiazole-3-carboxamide] | 6.28 nM |
| Cc1c([C@@H](C)NC(=O)c2nc(C(C)(C)C)no2)ccc(-c2n[nH]c3ncc(-c4ccc(N5CCN(CC6CCN(c7ccc(N8CCC(=O)NC8=O)cc7)CC6)CC5)cc4)cc23)c1F [Example 45, (R)-3-(tert-butyl)-N-(1-(4-(5-(4-(4-((1-(4-(2,4-dioxotetrahydropyrimidin-1(2H)-yl)phenyl)piperidin-4-yl)methyl)piperazin-1-yl)phenyl)-1H-pyrazolo[3,4-b]pyridin-3-yl)-3-fluoro-2-methylphenyl)ethyl)-1,2,4-oxadiazole-5-carboxamide] | 2.15 nM |
| Cc1cc(-c2n[nH]c3ncc(-c4ccc(C5CCN(CC6CCN(c7ccc(N8CCC(=O)NC8=O)cc7)CC6)CC5)cc4)cc23)c(F)cc1CNC(=O)c1nc(C(C)(C)C)no1 [Example 220, 3-(tert-butyl)-N-(4-(5-(4-(1-((1-(4-(2,4-dioxotetrahydropyrimidin-1(2H)-yl)phenyl)piperidin-4-yl)methyl)piperidin-4-yl)phenyl)-1H-pyrazolo[3,4-b]pyridin-3-yl)-5-fluoro-2-methylbenzyl)-1,2,4-oxadiazole-5-carboxamide] | 3.85 nM |
| Cc1cc(-c2n[nH]c3ncc(-c4ccc(N5CCN(CC6CCN(c7ccc(N8CCC(=O)NC8=O)cc7)CC6)CC5)cc4)cc23)ccc1CNC(=O)c1cnn(C(C)(C)C)c1 [Example 32, 1-(tert-butyl)-N-(4-(5-(4-(4-((1-(4-(2,4-dioxotetrahydropyrimidin-1(2H)-yl)phenyl)piperidin-4-yl)methyl)piperazin-1-yl)phenyl)-1H-pyrazolo[3,4-b]pyridin-3-yl)-2-methylbenzyl)-1H-pyrazole-4-carboxamide] | 2.55 nM |
| Cc1cc(-c2n[nH]c3ncc(-c4ccc(N5CCN(CC6CCN(c7ccc(N8CCC(=O)NC8=O)cc7)CC6)CC5)nc4)cc23)ccc1CNC(=O)c1noc(C(C)(C)C)n1 [Example 65, 5-(tert-butyl)-N-(4-(5-(6-(4-((1-(4-(2,4-dioxotetrahydropyrimidin-1(2H)-yl)phenyl)piperidin-4-yl)methyl)piperazin-1-yl)pyridin-3-yl)-1H-pyrazolo[3,4-b]pyridin-3-yl)-2-methylbenzyl)-1,2,4-oxadiazole-3-carboxamide] | 7.67 nM |
| Cc1cc(-c2n[nH]c3ncc(-c4ccc(N5CCN(CCn6nc(C)c(N7CCC(=O)NC7=O)c6C)CC5)cc4)cc23)ccc1[C@@H](C)NC(=O)c1noc(C(C)(C)C)n1 [Example 164, (R)-5-(tert-butyl)-N-(1-(4-(5-(4-(4-(2-(4-(2,4-dioxotetrahydropyrimidin-1(2H)-yl)-3,5-dimethyl-1H-pyrazol-1-yl)ethyl)piperazin-1-yl)phenyl)-1H-pyrazolo[3,4-b]pyridin-3-yl)-2-methylphenyl)ethyl)-1,2,4-oxadiazole-3-carboxamide] | 2.05 nM |
| Cc1cc(-c2n[nH]c3ncc(-c4ccc(C5CCN(CC6CCN(c7ccc(N8CCC(=O)NC8=O)cc7)CC6)CC5)cc4)cc23)ccc1CNC(=O)c1nc(C(C)(C)C)no1 [Example 4, 3-(tert-butyl)-N-(4-(5-(4-(1-((1-(4-(2,4-dioxotetrahydropyrimidin-1(2H)-yl)phenyl)piperidin-4-yl)methyl)piperidin-4-yl)phenyl)-1H-pyrazolo[3,4-b]pyridin-3-yl)-2-methylbenzyl)-1,2,4-oxadiazole-5-carboxamide] | 1.19 nM |
| COc1cc(N2CCC(CCN3CCC(c4ccc(-c5cnc6[nH]nc(-c7ccc(CNC(=O)c8nc(C(C)(C)C)no8)c(C)c7)c6c5)cc4)CC3)CC2)ccc1N1CCC(=O)NC1=O [Example 28, 3-(tert-butyl)-N-(4-(5-(4-(1-(2-(1-(4-(2,4-dioxotetrahydropyrimidin-1(2H)-yl)-3-methoxyphenyl)piperidin-4-yl)ethyl)piperidin-4-yl)phenyl)-1H-pyrazolo[3,4-b]pyridin-3-yl)-2-methylbenzyl)-1,2,4-oxadiazole-5-carboxamide] | 2.54 nM |

Same assay, conditions: TMD8, maximum percentage of inhibition (degradation)

| Dmax | Structure (SMILES) |
| --- | --- |
| 93.6% | Cc1cc(-c2n[nH]c3ncc(-c4ccc(N5CCN(CC6CCN(c7ccc(N8CCC(=O)NC8=O)cc7)CC6)CC5)cc4)cc23)ccc1CNC(=O)c1cnn(C(C)(C)C)c1 [Example 32, 1-(tert-butyl)-N-(4-(5-(4-(4-((1-(4-(2,4-dioxotetrahydropyrimidin-1(2H)-yl)phenyl)piperidin-4-yl)methyl)piperazin-1-yl)phenyl)-1H-pyrazolo[3,4-b]pyridin-3-yl)-2-methylbenzyl)-1H-pyrazole-4-carboxamide] |
| 96.7% | Cc1cc(-c2n[nH]c3ncc(-c4ccc(C5CCN(CC6CCN(c7ccc(N8CCC(=O)NC8=O)cc7)CC6)CC5)cc4)cc23)ccc1CNC(=O)c1nc(C(C)(C)C)no1 [Example 4, 3-(tert-butyl)-N-(4-(5-(4-(1-((1-(4-(2,4-dioxotetrahydropyrimidin-1(2H)-yl)phenyl)piperidin-4-yl)methyl)piperidin-4-yl)phenyl)-1H-pyrazolo[3,4-b]pyridin-3-yl)-2-methylbenzyl)-1,2,4-oxadiazole-5-carboxamide] |
| 97.1% | COc1cc(N2CCC(CCN3CCC(c4ccc(-c5cnc6[nH]nc(-c7ccc(CNC(=O)c8nc(C(C)(C)C)no8)c(C)c7)c6c5)cc4)CC3)CC2)ccc1N1CCC(=O)NC1=O [Example 28, 3-(tert-butyl)-N-(4-(5-(4-(1-(2-(1-(4-(2,4-dioxotetrahydropyrimidin-1(2H)-yl)-3-methoxyphenyl)piperidin-4-yl)ethyl)piperidin-4-yl)phenyl)-1H-pyrazolo[3,4-b]pyridin-3-yl)-2-methylbenzyl)-1,2,4-oxadiazole-5-carboxamide] |
